Measured values taken from patent US20260345654A1, “2,8-DIHYDROXYQUINOLINE GLUCURONIDE DERIVATIVES WITH ENHANCED PROPERTIES FOR USE AS ANTICANCER, ANTIVIRAL, ANTIMICROBIAL, AND OTHER THERAPEUTIC APPLICATIONS” (priority 2023, published 2026).
pIC50: −log10 of the molar value. “Also recorded” adds a separate entry of the source. Like-named read-outs stand apart in the source and are kept apart here.

Assays:
[1] = tested on: basal cell and squamous cell cancer; test: Case studies overview, topical W1469; assay type: in vivo, human
Experimental: (§1) Topical gel containing 0.5 mg/ml W1469 in proprietary aqueous alcohol gel, applied initially once daily using a suitable topical applicator.
(§2) In general, the Treatment/Patient protocol used for the patient testing was as follows: • 1. Photograph the application site prior to starting the protocol. Note any changes in lesion size, color, etc. of treatment area. • 2. Remove a loaded syringe from the freezer, dry ice or refrigerator and allow to gradually warm to room temperature. • 3. Photograph the syringe each time prior to application. Note the color of the gel contained in the syringe. • 4. Lightly clean the skin surface with alcohol wipe. • 5. […] Let the liquid from the gel absorb into the site without disturbing. Apply once a day at the same time. • 6. Re-cap the syringe and store in the refrigerator until completely used. • 7. Repeat 1-6 each daily during application period. It is noted in this protocol that photographing the syringe used with each application period accomplishes two things.
• 1. Toleration/toxicity • 2. Application methodology • 3. Any visual indications of efficacy • 4. Patient feedback Study Duration: Varied case by case. Generally, two weeks to two months

UACC-62 cells = test: In vitro anti-proliferation (CellTiter-Glo, 72 hr), UACC-62; assay type: cell-based
Experimental: (§3) Commercially available 8HQ and freshly synthesized G2-8HQ were prepared for in vitro anti-proliferative studies against the following cell lines with and without the presence of 10 μM Cu(+2): (1) A549: […]; (2) BT-549: epithelial cells from ductal tumor; (3) DU-145: human prostate cancer; (4) PANC-1: pancreatic cancer; (5) SU.86.86: a new adoptive pancreatic cell for immunotherapy studies; (6) RL: non-Hodgkin's lymphoma; (7) LnCAP, Prostate cancer cell line; (8) A431, a squamous cell carcinoma line; and (9) UACC-62 a malignant melanoma cell line.
(§4) With regard to the study protocol used, the objective was to conduct a study of the cytotoxicity of W1469 against several cancer cell lines. In the study protocol, preparations for the A549 (Lung) cell line screen are given as an example. The following materials were used: (1) FBS (2) RPMI-1640 medium supplemented with 10% FBS:’ and (3) A549 Cells. The four samples tested are referred to as Items 1-4 below and were placed at 4 °C upon arrival. These four samples were as follows: • Item 1: Tube A (W1469) (500 uM when FBS added) • Item 2: Tube B (W1469g) (1000 uM when FBS added) • Item 3: Tube C (W1469) • Item 4: Tube D (W1469g)
(§5) Add 50 μL of above 2× stocks to appropriate wells to expose appropriate cells to the final dilutions of samples. Add 50 μL media to media and cell control wells and 50 μL media mix to vehicle control wells. Cells are exposed for 72 hr. Following a 72 hr exposure to Sample, perform a CTG assay on all remaining plates.
(§6) At the end of the 72 hr exposure period, remove plates for CellTiter-Glo assay from 37 °C, 5% CO2 incubator and place on the bench at room temperature for 30 mins. Add 100 μL CellTiter-Glo reagent, mix for 2 mins, followed by a further 10 min incubation at room temperature. Record luminescence. Tables showing the resulting plate layouts are included below/
The other cancer cell lines tested gave similar results. […] Three additional cell lines were also studied and described more completely in Example 9 provided herein. These cell lines included cytotoxicity testing of WT1469 (G2-8HQ) against LnCAP a prostate cancer, A431 a squamous carcinoma cell line and UACC-62 a malignant melanoma cell line. All were complexed in situ with copper immediately prior to testing. The results from these additional cell lines and incorporated in Table 2 and Example 9.

PANC-1 cells = test: In vitro anti-proliferation (CellTiter-Glo, 72 hr), PANC-1; assay type: cell-based
Experimental: as §3, §4, §5, §6

DU-145 cells = test: In vitro anti-proliferation (CellTiter-Glo, 72 hr), DU-145; assay type: cell-based, human
Experimental: as §3, §4, §5, §6

[2] = tested on: ulcerative lesion to mid forehead; test: Case study, topical W1469, ulcerative lesion (Individual 3); assay type: in vivo, human; conditions: Individual 3, twice daily, after one week
Experimental: as §1, §2
Physician administered, variable treatment protocol, drug concentrations and vehicle carrier. A person with ulcerative lesion to mid forehead approximately 3 mm×4 mm. […]. Non painful and without exudate. Therapy applied on a twice daily dosing schedule.

BT-549 cells = test: In vitro anti-proliferation (CellTiter-Glo, 72 hr), BT-549; assay type: cell-based
Experimental: as §3, §4, §5, §6

Complexation of copper = assay type: physicochemical
[3] = 1 and 0.5 μM, presence of Cu^+2 ions, wide standard deviation
[4] = +Cu (10 μM), 72 hr, G2-8HQ values based on MW of apo form (337), read-out: IC50
[5] = complexed with Cu, multiplied by 337/776=0.43, column 3 duplicate of column 2, listed as W1469, read-out: IC50 (adjusted to MW of copper complex)

SMILES: O=C(O)[C@H]1O[C@@H](Oc2ccc3cccc(O)c3n2)[C@H](O)[C@@H](O)[C@@H]1O [G2-8HQ, 8-Hydroxy-2-quinolinyl beta-D-glucopyranosiduronic acid]
- Side Effects ([1]; all 4 case studies): No side effects were noted
- appearance of skin surrounding the cancer lesion(s) ([1]; all 4 case studies): Marked improvements in general appearance of skin surrounding the cancer lesion(s)
- cancer lesion size ([1]; all 4 case studies): Progressive reduction of cancer lesion size
- dose dependency ([1]; all 4 case studies): higher concentrations work better
- effect on adjacent tissue ([1]; all 4 case studies): Doesn't inflame or injure adjacent tissue
- pain of treatment and application ([1]; all 4 case studies): not painful
- time to rapid elimination of pain and visible inflammation ([1]; all 4 case studies): 2 to 5 days
- toxicity ([1]; topical gel 0.5 mg/ml, once daily initially): no toxicity was observed
- pIC50 (UACC-62 cells; +Cu, complexed in situ with copper immediately prior to testing, not based on apo MW, read-out: IC50): 3.77
- pIC50 (UACC-62 cells; Homo sapiens, UACC-62, +Cu, complexed in situ with copper immediately prior to testing, not based on apo MW, read-out: IC50): 3.81
- pIC50 (UACC-62 cells; Homo sapiens, UACC-62, complexed with Cu in situ, * differences with or without excipient, suboptimal complexing, read-out: IC50 (adjusted to MW of copper complex)): 3.82
- pIC50 (UACC-62 cells; complexed with Cu in situ, * differences with or without excipient, suboptimal complexing, listed as W1469, read-out: IC50 (adjusted to MW of copper complex)): 3.78
- Solubility of Cu Complex/aqueous (Solubility; comparison Table 5): excellent
- solubility (Solubility; water / aqueous): highly aqueous soluble
- solubility (Solubility; water or PBS (at neutral pH)): highly soluble
- cytotoxicity (PANC-1 cells; [3]): at least some of the screens reflected that all the cancer cells were killed at these concentrations; also recorded: in some % of the screens all the cancer cells were killed at these concentrations
- pIC50 (PANC-1 cells; Homo sapiens, PANC-1, 72 h, −Cu, 72 hr): < 3.30
- cytotoxicity (DU-145 cells; [3]): in some percentage of the screens all the cancer cells were killed at these concentrations
- pIC50 (DU-145 cells; [4]): 5.06
- pIC50 (DU-145 cells; Homo sapiens, DU-145, 72 h, +Cu (10 μM), 72 hr, G2-8HQ values based on MW of apo form (337), read-out: IC50): 5.14
- pIC50 (DU-145 cells; Homo sapiens, DU-145, 72 h, −Cu, 72 hr, read-out: IC50): < 3.30
- pIC50 (DU-145 cells; Homo sapiens, DU-145, complexed with Cu, multiplied by 337/776=0.43, column 3 duplicate of column 2, read-out: IC50 (adjusted to MW of copper complex)): 5.51
- pIC50 (DU-145 cells; [5]): 5.43
- erythema, exudate, or hyperkeratosis [2]: No erythema, exudate, or hyperkeratosis noted
- ulcerative lesion [2]: resolution of ulcerative lesion
- cytotoxicity (BT-549 cells; [3]): in some percentage of the screens all the cancer cells were killed at these concentrations
- pIC50 (BT-549 cells; [4]): 5.07
- pIC50 (BT-549 cells; Homo sapiens, BT-549, 72 h, +Cu (10 μM), 72 hr, G2-8HQ values based on MW of apo form (337), read-out: IC50): 5.25
- pIC50 (BT-549 cells; Homo sapiens, BT-549, 72 h, −Cu, 72 hr, read-out: IC50): < 3.30
- pIC50 (BT-549 cells; Homo sapiens, BT-549, complexed with Cu, multiplied by 337/776=0.43, column 3 duplicate of column 2, read-out: IC50 (adjusted to MW of copper complex)): 5.62
- pIC50 (BT-549 cells; [5]): 5.43
- Complexes w/copper (Complexation of copper; comparison Table 5): Yes
- copper complexation (Complexation of copper; water or PBS (at neutral pH), without suitable excipient): will not readily complex Cu^+2
